Laboratory results as given in article PMC10464297, “Reevaluation of bromodomain ligands targeting BAZ2A” (Protein Science : A Publication of the Protein Society, 2023).
“Also recorded” adds a separate entry of the source.

What was measured:
PC3 spheroids = assay: Spheroid growth (3D), PC3; type: cell-based
Protocol: Cell cultures, proliferation assay and spheroid gro wth […]
streptomycin and 2 m M L-glutamine. All cells were regularly tested for mycoplasma contamination. […]
Spheroids were obtained by plating PC3 and 22Rv1 cells in low -adhesion round bottom 96 -well […]
After seeding, the cells were centrifuged for 10 min at 1200 x g at 4°C. Spheroids were given 48 hours to form after seeding before adding the treatment or the carrier (0.1% DMSO). Medium supplemented with treatment/carrier was changed every 48 hours, for a total of 32 days for 22Rv1 and 16 days for PC3. Each spheroid was imaged in brightfield every day or every other day (after day 20), using a Leica DM IL microscope […]
equipped with a Leica DFC450C digital camera. The area of each spheroid was measured using ImageJ and the average area for each condition was calculated. The growth rate was analysed using the segmental linear regression algorithm of GraphPad Prism. The appropriateness of the model was evaluated by considering the R square values and the Replicates test (Suppl. Table 6). […]

[1] = tested on: 22Rv1 (AR‐positive) PCa cells; assay: 2D proliferation assay (resazurin), 22Rv1; type: cell-based
Protocol: Cell cultures, proliferation assay and spheroid gro wth
PC3 and 22Rv1 cells were cultured in RPMI 1640 medium containing 10% FBS, 1% penicillin-streptomycin and 2 m M L-glutamine. All cells were regularly tested for mycoplasma contamination.
For the proliferation assay, cells were counted with a hemocytometer and seeded in triplicates in 96-well plates (4 .5x10^3 cells/well for 22Rv1 and 2.0x103 for PC3) and let adhere overnight at 37°C, 5% CO2. The following day, the medium was replaced with RPMI 1640 containing either the carrier […]
transfected with siRNA for BAZ2A , RLUC or KIF11, as detailed below. The cells were incubated for 1, 3, 6 (PC3) and 9 days (22Rv1) and the medium containing either the carrier or the inhibitors was replaced every 3 day s. Cell proliferation and viability were determined at day 1, 3, 6 and 9 by adding 10% resazurin sodium salt solution (0. 03 mg/ml powder from Sigma -Aldrich) directly into each well and incubating them for 4h at 37°C, 5% CO 2. The absorbance at 570/600 nm was measured using a Varioskan plate reader. The reduction of the resazur in sodium salt was calculated using the formula: (Abs x – Abs 0. 1%DMSO day1)/(Abs 0. 1%DMSO day9 - Abs 0. 1%DMSO day1). The growth rate was analysed using the linear regression algorithm of GraphPad Prism. […]

PCa cells = assay: RT-qPCR of genes affected by BAZ2A genetic ablation; type: cell-based; details: 25 μM, 6 days, PC3 and 22Rv1
Protocol: equipped with a Leica DFC450C digital camera. The area of each spheroid was measured using ImageJ and the average area for each condition was calculated. The growth rate was analysed using the segmental linear regression algorithm of GraphPad Prism. The appropriateness of the model was evaluated by considering the R square values and the Replicates test (Suppl. Table 6).
Cells were counted and plated in 6 well (for RNA extraction) or 96 well (for growth curve) at a […]
and 4.5x10^3 cells/well for 22Rv1) and let attach overnight at 37°C, 5% CO2. […] The gene expression was analyzed after 6 days from the cells seeded in the 6 well, while the viability was analyzed in the same way as for the cells treated with the […]
Cells were previously counted and plated in 6 well at a fixed amount (60.000 cells/well for PC3; 135.000 cells/well for 22Rv1). The RNA was extracted using the phenol-chloroform method and its concentration was measured by Nano spectrophotometer. […]
Total protein content was extracted from cells transfected with siRNA B AZ2A or siRNA RLU C (negative control). […] Cells were lysed using RIPA buffer and protein concentration was determined by Bradford Reagent (Sigma-Aldrich), according to the manufacturer’s instructions. […]

[2] = tested on: panel of receptors, channels and transporters; set-up: method as in https://www.thesgc.org/chemical-probes/BAZ2-ICR; details: ref https://www.thesgc.org/chemical-probes/BAZ2-ICR; cited from earlier work

Cn1cc(CCn2cnc(-c3cnn(C)c3)c2-c2ccc(C#N)cc2)cn1 [BAZ2‐ICR]
effect on growth of PC3 spheroids (PC3 spheroids; 3D setting, GSK2801 25 μM, BAZ2‐ICR 25 μM, BI9564 20 μM): did not significantly affect PC3 spheroids | slope2 (segmental linear regression of spheroid growth) (PC3 spheroids; PC3 spheroids, 25 µM, after X0 = day 6): 77288 | slope1 (segmental linear regression of spheroid growth) (PC3 spheroids; PC3 spheroids, 25 µM, before X0 = day 6): 62282 | effect on 2D growth of 22Rv1 cells ([1]; 2D‐cell culture, 22Rv1): did not affect growth; also recorded: but not BAZ2‐ICR, reduces 2D growth | effect on viability of 22Rv1 cells ([1]; 2D‐cell culture, 22Rv1): did not affect growth or viability | Slope (best-fit, linear regression of growth curve) ([1]; 22Rv1, 0.5 µM): 0,1041 | Slope (best-fit, linear regression of growth curve) ([1]; 22Rv1, 5 µM): 0,1046 | Slope (best-fit, linear regression of growth curve) ([1]; 22Rv1, 10 µM): 0,1034 | Slope (best-fit, linear regression of growth curve) ([1]; 22Rv1, 25 µM): 0,1066 | transcription of a set of genes affected by BAZ2A genetic ablation (PCa cells): did not comparably alter the transcription | profile on panel of receptors, channels and transporters [2]: clean
